{"source": "patent US20230015823A1", "about": "“METHODS OF ADMINISTERING VOXELOTOR” (Global Blood Therapeutics, Inc., priority 2019, published 2023)", "key": {"[1]": {"test_system": "rat", "assay": "Rat micronucleus assay", "type": "in vivo", "description": "(§1) Voxelotor was not genotoxic in the reverse mutation bacterial (Ames) test, rat Comet assay, or rat micronucleus assay."}, "[2]": {"test_system": "QT interval", "assay": "Cardiac electrophysiology", "type": "in vivo", "conditions": "plasma concentrations approximately 2-fold above therapeutic concentrations"}, "[3]": {"test_system": "pregnant rats", "assay": "Pre- and postnatal development study in pregnant rats", "type": "in vivo, rat", "protocol": "In a pre- and postnatal development study, voxelotor was administered orally to pregnant rats at 15, 50 and 250 mg/kg/day (gestation day 6 through lactation day 20). Maternal gestational body weights were decreased at 250 mg/kg/day, which continued to the end of lactation."}, "[4]": {"molecular_target": "CYP2D6 (Homo sapiens, UniProt P10635)", "sequence (P10635 whole entry)": "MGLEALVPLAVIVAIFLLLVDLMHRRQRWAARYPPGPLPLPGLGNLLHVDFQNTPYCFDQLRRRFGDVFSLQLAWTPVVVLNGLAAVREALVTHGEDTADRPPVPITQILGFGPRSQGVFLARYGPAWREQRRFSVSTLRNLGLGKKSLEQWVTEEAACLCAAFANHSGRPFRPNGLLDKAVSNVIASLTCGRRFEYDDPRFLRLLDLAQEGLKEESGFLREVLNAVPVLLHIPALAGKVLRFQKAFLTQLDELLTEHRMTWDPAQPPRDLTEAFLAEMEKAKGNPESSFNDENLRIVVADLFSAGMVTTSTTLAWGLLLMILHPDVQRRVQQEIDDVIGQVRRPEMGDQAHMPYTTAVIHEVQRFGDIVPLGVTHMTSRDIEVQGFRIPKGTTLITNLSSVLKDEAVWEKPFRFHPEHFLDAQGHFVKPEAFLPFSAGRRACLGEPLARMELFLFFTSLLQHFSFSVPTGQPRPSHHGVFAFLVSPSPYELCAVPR"}, "[5]": {"molecular_target": "hemoglobin S (HbS) (Homo sapiens, UniProt P69905)", "sequence (P69905 whole entry)": "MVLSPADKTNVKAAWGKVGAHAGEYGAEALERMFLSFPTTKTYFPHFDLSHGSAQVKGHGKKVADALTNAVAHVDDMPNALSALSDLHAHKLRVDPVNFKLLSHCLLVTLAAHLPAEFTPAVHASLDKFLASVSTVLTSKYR", "sequence (P68871 with tags, fused parts or gaps E7V partner limits assumed)": "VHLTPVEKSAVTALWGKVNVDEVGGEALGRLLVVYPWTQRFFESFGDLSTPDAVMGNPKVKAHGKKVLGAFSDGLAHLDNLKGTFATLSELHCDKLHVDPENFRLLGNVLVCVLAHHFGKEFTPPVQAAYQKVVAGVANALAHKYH", "assay": "Mechanism of action: binding to HbS and HbS polymerization"}, "[6]": {"molecular_target": "T1, CYP2C9 (Homo sapiens, UniProt P11712)", "T1 construct": "endogenous in cells; host or cells: healthy subjects, in vivo", "T1 sequence (P11712 whole entry)": "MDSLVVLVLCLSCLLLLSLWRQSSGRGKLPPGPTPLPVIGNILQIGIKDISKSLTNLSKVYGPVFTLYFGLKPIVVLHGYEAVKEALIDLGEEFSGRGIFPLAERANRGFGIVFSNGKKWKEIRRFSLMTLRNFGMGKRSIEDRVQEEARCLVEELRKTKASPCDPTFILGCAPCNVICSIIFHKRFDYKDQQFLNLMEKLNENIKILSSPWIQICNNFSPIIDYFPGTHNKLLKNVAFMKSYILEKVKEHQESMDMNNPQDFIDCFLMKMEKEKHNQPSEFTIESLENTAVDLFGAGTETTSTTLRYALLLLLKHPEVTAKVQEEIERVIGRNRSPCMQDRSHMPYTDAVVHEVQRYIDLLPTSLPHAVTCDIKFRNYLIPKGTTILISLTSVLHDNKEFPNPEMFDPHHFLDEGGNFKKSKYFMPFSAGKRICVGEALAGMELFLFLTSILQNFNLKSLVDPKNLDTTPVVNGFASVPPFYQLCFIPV", "assay": "Effect of voxelotor on PK of CYP2C9 probe substrate S-warfarin in healthy subjects", "type": "in vivo", "protocol": "During Period 1, subjects received a single dose of caffeine 100 mg, warfarin sodium 10 mg+vitamin K 10 mg, omeprazole 20 mg, and midazolam hydrochloride 2 mg on Day 1. During Period 2, subjects received voxelotor 900 mg QD on Days 1 and 2 followed by 600 mg QD on Day 3, a single dose of caffeine 100 mg, warfarin sodium 10 mg+vitamin K 10 mg, omeprazole 20 mg, and midazolam hydrochloride 2 mg on Day 4, and voxelotor 600 mg QD on Days 4 through 7.\nWhole blood and plasma concentrations of voxelotor and plasma concentrations of caffeine, paraxanthine, S-warfarin, omeprazole, 5-hydroxyomeprazole, midazolam, and 1-hydroxymidazolam were determined using validated assays."}, "[7]": {"molecular_target": "OAT1 (Homo sapiens, UniProt Q4U2R8)", "sequence (Q4U2R8 whole entry)": "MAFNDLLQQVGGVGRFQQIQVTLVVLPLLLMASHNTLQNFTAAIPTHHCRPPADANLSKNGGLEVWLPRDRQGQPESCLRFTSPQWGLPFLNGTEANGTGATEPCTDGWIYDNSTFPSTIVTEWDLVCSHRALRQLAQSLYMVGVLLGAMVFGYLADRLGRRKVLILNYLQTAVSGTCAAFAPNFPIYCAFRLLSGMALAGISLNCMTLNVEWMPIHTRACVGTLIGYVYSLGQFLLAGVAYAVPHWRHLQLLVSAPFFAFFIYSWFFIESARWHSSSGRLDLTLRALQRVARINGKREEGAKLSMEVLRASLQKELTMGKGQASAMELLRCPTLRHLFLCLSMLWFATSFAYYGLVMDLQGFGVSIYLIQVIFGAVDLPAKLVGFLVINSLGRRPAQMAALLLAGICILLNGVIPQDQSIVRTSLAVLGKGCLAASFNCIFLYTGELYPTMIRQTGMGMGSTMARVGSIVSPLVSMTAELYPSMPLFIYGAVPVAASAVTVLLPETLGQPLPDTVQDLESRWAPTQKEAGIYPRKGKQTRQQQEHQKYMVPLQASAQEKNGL", "assay": "In vitro transporter studies: OAT1", "type": "in vitro ADME"}, "[8]": {"molecular_target": "OATP1A2 (Homo sapiens, UniProt P46721)", "sequence (P46721 whole entry)": "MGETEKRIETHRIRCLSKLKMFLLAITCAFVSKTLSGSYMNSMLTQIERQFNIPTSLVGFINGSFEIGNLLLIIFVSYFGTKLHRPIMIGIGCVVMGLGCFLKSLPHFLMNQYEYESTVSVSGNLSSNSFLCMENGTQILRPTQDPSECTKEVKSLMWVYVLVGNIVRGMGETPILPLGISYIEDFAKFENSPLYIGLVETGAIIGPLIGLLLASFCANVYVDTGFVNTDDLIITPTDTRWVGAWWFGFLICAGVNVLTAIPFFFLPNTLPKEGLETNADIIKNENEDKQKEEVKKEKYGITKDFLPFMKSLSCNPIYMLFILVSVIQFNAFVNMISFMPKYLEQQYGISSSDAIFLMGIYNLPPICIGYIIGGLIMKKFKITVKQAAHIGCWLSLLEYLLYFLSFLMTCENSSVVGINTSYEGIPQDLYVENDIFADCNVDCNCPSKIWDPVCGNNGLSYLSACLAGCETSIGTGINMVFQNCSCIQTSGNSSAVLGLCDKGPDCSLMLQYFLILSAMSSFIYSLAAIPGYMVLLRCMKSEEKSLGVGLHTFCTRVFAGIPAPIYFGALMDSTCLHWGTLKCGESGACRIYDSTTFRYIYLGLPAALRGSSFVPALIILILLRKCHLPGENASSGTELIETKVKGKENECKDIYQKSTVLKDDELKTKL", "assay": "In vitro transporter studies: OATP1A2", "type": "in vitro ADME"}, "[9]": {"test_system": "bacterial reverse mutation", "assay": "Reverse mutation bacterial (Ames) test", "type": "cell-based", "description": "as §1"}, "[10]": {"molecular_target": "OCT2 (Homo sapiens, UniProt O15244)", "sequence (O15244 whole entry)": "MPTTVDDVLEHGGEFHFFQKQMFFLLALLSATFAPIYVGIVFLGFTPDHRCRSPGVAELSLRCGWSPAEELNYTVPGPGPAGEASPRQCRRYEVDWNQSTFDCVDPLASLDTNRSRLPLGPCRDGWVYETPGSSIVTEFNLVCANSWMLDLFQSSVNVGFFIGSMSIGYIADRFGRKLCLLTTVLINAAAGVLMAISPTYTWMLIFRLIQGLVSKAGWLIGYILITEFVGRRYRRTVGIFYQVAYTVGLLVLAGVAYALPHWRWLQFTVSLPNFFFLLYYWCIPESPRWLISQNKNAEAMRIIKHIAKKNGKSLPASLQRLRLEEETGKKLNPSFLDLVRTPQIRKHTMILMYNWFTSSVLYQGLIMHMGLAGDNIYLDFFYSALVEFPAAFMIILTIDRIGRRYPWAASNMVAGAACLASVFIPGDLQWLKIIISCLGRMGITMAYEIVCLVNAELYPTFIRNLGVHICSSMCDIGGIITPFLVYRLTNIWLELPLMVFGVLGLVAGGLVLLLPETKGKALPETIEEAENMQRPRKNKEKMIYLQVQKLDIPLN", "assay": "In vitro transporter studies: OCT2", "type": "in vitro ADME"}, "[11]": {"test_system": "Hb", "assay": "Pharmacodynamics: Hb oxygen affinity (p50) and clinical measures of hemolysis", "type": "in vivo"}, "[12]": {"assay": "Clinical trials experience (HOPE trial): safety of OXBRYTA", "type": "in vivo, human", "protocol": "The safety of OXBRYTA was evaluated in the HOPE trial based upon 88 patients who received OXBRYTA 1,500 mg and 91 patients who received placebo orally once daily [see Clinical Studies (14)]. Seventy-four patients received OXBRYTA 1,500 mg once daily for ≥24 weeks and 65 patients for ≥48 weeks.\nIn patients who received OXBRYTA 1,500 mg once daily the median age was 24 years (range: 12-59); 65% female; 66% Black or African American and 23% Arab/Middle Eastern; and 65% receiving hydroxyurea at baseline."}, "[13]": {"test_system": "rats", "assay": "Fertility and early embryonic development study", "type": "in vivo, rat", "protocol": "In a fertility and early embryonic development study, voxelotor was administered orally to rats at 15, 50, and 250 mg/kg/day. Males were dosed 28 days prior to mating through cohabitation and females were dosed 14 days prior to mating through gestation Day 7."}, "[14]": {"assay": "Drug substance properties (solubility, hygroscopicity)", "type": "physicochemical", "conditions": "crystalline Form II free base", "description": "Voxelotor, the active drug substance, is a white-to-yellow-to-beige compound in crystalline Form II of its free base. It is non-hygroscopic."}, "[15]": {"molecular_target": "OAT3 (Homo sapiens, UniProt Q8TCC7)", "sequence (Q8TCC7 whole entry)": "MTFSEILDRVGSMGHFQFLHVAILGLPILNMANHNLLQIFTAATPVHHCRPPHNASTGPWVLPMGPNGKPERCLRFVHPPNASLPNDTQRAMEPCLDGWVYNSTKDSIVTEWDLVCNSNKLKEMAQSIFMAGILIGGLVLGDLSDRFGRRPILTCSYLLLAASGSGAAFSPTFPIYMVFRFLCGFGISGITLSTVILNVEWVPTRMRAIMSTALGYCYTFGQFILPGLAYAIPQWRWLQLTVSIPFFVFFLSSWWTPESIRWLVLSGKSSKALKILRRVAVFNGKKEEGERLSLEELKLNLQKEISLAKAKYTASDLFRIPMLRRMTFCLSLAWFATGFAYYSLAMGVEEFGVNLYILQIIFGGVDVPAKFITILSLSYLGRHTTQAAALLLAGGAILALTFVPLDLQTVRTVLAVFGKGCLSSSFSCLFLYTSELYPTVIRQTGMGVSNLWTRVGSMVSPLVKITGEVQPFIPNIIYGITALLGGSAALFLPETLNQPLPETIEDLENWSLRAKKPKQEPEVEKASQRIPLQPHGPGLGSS", "assay": "In vitro transporter studies: OAT3", "type": "in vitro ADME"}, "[16]": {"test_system": "pregnant rats", "assay": "Embryo-fetal development study in pregnant rats", "type": "in vivo, rat", "protocol": "In embryo-fetal development studies, voxelotor was administered orally to pregnant rats at 15, 50, and 250 mg/kg/day (gestation days 7 through 17) and rabbits at 25, 75, and 150 mg/kg/day (gestation days 7 through 19) through organogenesis."}, "[17]": {"test_system": "RasH2 transgenic mice", "assay": "26-week carcinogenicity study", "type": "in vivo, mouse", "conditions": "26-week study; oral doses of 30, 150, or 500 mg/kg/day"}, "[18]": {"molecular_target": "OATP1B1 (Homo sapiens, UniProt Q9Y6L6)", "sequence (Q9Y6L6 whole entry)": "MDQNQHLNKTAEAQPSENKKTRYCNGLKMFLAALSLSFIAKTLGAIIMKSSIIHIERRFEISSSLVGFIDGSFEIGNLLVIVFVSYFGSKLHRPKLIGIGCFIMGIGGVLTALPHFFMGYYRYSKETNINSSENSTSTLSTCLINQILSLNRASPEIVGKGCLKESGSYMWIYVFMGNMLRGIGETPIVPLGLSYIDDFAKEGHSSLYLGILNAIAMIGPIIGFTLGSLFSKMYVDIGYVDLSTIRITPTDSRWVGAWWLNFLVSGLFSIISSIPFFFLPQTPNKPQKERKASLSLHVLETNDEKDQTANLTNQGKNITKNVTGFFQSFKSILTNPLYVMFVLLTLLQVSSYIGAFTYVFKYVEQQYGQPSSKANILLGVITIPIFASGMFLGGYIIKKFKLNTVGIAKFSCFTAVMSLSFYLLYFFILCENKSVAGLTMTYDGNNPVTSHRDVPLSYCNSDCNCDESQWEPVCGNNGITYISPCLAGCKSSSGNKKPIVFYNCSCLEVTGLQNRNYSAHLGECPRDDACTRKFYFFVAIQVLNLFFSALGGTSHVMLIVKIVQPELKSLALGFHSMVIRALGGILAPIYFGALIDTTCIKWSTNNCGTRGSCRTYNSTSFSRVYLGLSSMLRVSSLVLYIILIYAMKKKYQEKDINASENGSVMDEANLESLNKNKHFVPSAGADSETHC", "assay": "In vitro transporter studies: OATP1B1", "type": "in vitro ADME"}, "[19]": {"molecular_target": "CYP2C8 (Homo sapiens, UniProt P10632)"}, "[20]": {"molecular_target": "P-gp (Homo sapiens, UniProt P08183)", "assay": "Effect of voxelotor on P-gp: concomitant digoxin", "type": "in vivo", "conditions": "concomitant use"}, "[21]": {"molecular_target": "MATE1 (Homo sapiens, UniProt Q96FL8)", "sequence (Q96FL8 whole entry)": "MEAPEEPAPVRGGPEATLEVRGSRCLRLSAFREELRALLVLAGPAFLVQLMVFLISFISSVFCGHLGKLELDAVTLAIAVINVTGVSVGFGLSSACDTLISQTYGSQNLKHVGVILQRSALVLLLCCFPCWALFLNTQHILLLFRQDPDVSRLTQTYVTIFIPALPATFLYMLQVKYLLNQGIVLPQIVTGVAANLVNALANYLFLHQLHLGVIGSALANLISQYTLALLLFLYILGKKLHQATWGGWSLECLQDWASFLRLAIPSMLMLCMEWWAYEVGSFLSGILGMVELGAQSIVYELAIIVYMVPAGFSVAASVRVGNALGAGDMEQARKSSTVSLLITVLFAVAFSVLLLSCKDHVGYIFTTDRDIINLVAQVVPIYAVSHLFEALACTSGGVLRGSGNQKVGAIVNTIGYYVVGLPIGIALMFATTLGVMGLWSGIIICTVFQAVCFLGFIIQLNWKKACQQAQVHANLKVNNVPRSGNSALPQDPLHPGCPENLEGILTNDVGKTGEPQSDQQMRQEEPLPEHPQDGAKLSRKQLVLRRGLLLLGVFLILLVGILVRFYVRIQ", "assay": "In vitro transporter studies: MATE1", "type": "in vitro ADME"}}, "note": "Entries after “also recorded” stand apart in the source; their conditions may differ."}
{"smiles": "CC(C)n1nccc1-c1ncccc1COc1cccc(O)c1C=O", "note": "[voxelotor, 2-hydroxy-6-((2-(1-isopropyl-1H-pyrazol-5-yl)pyridin-3-yl)methoxy)benzaldehyde]", "values": [{"measurement": "genotoxicity", "setting": "[1]", "result": "not genotoxic"}, {"measurement": "QT interval prolongation", "setting": "[2]", "result": "does not prolong QT interval to any clinically relevant extent"}, {"measurement": "findings in offspring", "setting": "[3]; maternal dose 250 mg/kg/day, throughout lactation, weaning and maturation", "result": "reduced survival and reduced body weights"}, {"measurement": "maternal gestational body weights", "setting": "[3]; pregnant rats, 250 mg/kg/day oral, gestation day 6 through lactation day 20", "result": "decreased"}, {"measurement": "exposure at 250 mg/kg/day relative to exposure in patients at the recommended dose", "setting": "[3]; rats, maternal dose 250 mg/kg/day", "result": "approximately 2.8 times"}, {"measurement": "inhibition of CYP2D6 in vivo", "setting": "[4]", "result": "not"}, {"measurement": "inhibition of HbS polymerization", "setting": "[5]", "result": "dose-dependent inhibition of HbS polymerization"}, {"measurement": "effect of voxelotor on PK of CYP2C9 probe substrate (S-warfarin)", "setting": "[6]; healthy subjects, multiple doses of voxelotor 900/600 mg QD", "result": "no clinically meaningful effect"}, {"measurement": "inhibition of CYP2C9 in vivo", "setting": "[6]; human, in vivo", "result": "not"}, {"measurement": "inhibition of OAT1", "setting": "[7]", "result": "not an inhibitor"}, {"measurement": "substrate of OATP1A2", "setting": "[8]", "result": "not a substrate"}, {"measurement": "genotoxicity", "setting": "[9]", "result": "not genotoxic"}, {"measurement": "inhibition of OCT2", "setting": "[10]", "result": "not an inhibitor"}, {"measurement": "clinical measures of hemolysis (indirect bilirubin and % reticulocytes)", "setting": "[11]; in vivo", "result": "dose-dependent reduction"}, {"measurement": "Hb oxygen affinity as determined by the change in p50", "setting": "[11]; linearly correlated with voxelotor exposure", "result": "dose-dependent increase in Hb oxygen affinity"}, {"measurement": "Adverse reaction: Abdominal Pain (grouped PTs)", "setting": "[12]; HOPE, 1,500 mg (N = 88)", "result": "17 (19%) n (%)"}, {"measurement": "Adverse reaction: Diarrhea", "setting": "[12]; HOPE, 1,500 mg (N = 88)", "result": "18 (20%) n (%)"}, {"measurement": "Adverse reaction: Fatigue", "setting": "[12]; HOPE, 1,500 mg (N = 88)", "result": "12 (14%) n (%)"}, {"measurement": "Adverse reaction: Headache", "setting": "[12]; HOPE, 1,500 mg (N = 88)", "result": "23 (26%) n (%)"}, {"measurement": "Adverse reaction: Nausea", "setting": "[12]; HOPE, 1,500 mg (N = 88)", "result": "15 (17%) n (%)"}, {"measurement": "Adverse reaction: Pyrexia", "setting": "[12]; HOPE, 1,500 mg (N = 88)", "result": "11 (12%) n (%)"}, {"measurement": "Adverse reaction: Rash (grouped PTs)", "setting": "[12]; HOPE, 1,500 mg (N = 88)", "result": "12 (14%) n (%)"}, {"measurement": "patients with serious adverse reactions", "setting": "[12]; HOPE, 1,500 mg once daily, 3/88", "result": 3, "unit": "%"}, {"measurement": "permanent discontinuation due to an adverse reaction (Grades 1-4)", "setting": "[12]; HOPE, 1,500 mg once daily, 4/88", "result": 5, "unit": "%"}, {"measurement": "dosage modifications (dose reduction or dosing interruption) due to an adverse reaction", "setting": "[12]; HOPE, 36/88", "result": 41, "unit": "%"}, {"measurement": "patients with serious hypersensitivity reactions", "setting": "[12]; patients treated", "result": "< 1", "unit": "%"}, {"measurement": "exposure at 250 mg/kg/day relative to human exposure at 1,500 mg/day", "setting": "[13]", "result": "approximately 5 times"}, {"measurement": "sperm motility", "setting": "[13]; 250 mg/kg/day, changes in sperm morphology also occurred", "result": "decreased"}, {"measurement": "effect on fertility or reproductive function", "setting": "[13]; oral 15, 50, 250 mg/kg/day", "result": "no effect on fertility or reproductive function"}, {"measurement": "hygroscopicity", "setting": "[14]", "result": "non-hygroscopic"}, {"measurement": "solubility in common organic solvents such as acetone and toluene", "setting": "[14]", "result": "highly soluble"}, {"measurement": "solubility", "setting": "[14]; water", "result": "~30", "unit": "µg/mL"}, {"measurement": "inhibition of OAT3", "setting": "[15]", "result": "not an inhibitor"}, {"measurement": "adverse developmental outcomes", "setting": "[16]; pregnant rats, oral 15, 50, 250 mg/kg/day, gestation days 7 through 17", "result": "no adverse developmental effects; also recorded: no evidence of adverse developmental outcomes"}, {"measurement": "exposure at highest dose level (maternal toxicity observed) relative to exposure in patients at the recommended daily dose", "setting": "[16]; rats, 250 mg/kg/day", "result": 2.8, "unit": "times"}, {"measurement": "carcinogenicity", "setting": "[17]", "result": "not carcinogenic"}, {"measurement": "inhibition of OATP1B1", "setting": "[18]", "result": "not an inhibitor"}, {"measurement": "substrate of OATP1B1", "setting": "[18]", "result": "not a substrate"}, {"measurement": "inhibition of CYP2C8 in vivo", "setting": "[19]", "result": "not"}, {"measurement": "effect on digoxin (a P-gp substrate)", "setting": "[20]", "result": "did not alter digoxin to a clinically relevant extent"}, {"measurement": "inhibition of MATE1", "setting": "[21]", "result": "not an inhibitor"}]}
